Test results taken from patent US20210196738A1, “PHARMACEUTICAL COMPOSITION COMPRISING A COLLOIDAL DISPERSION AND A THERAPEUTIC AGENT AND METHODS AND USES THEREOF” (priority 2017, published 2021).
“Also recorded” adds a separate entry of the source. Read-outs that look alike come from different tables or passages of the source.

Tests used:
[1] = tested on: E. coli K-12 MG1655 (DA4201); test: AgSol-antibiotic synergy screening assay / MIC (Ag/Antibiotic screen); assay type: cell-based, Escherichia coli; conditions: for Antibiotic MIC, NB + AgSol1000: antibiotic in combination with AgSol1000 at ¼ × MIC silver; for Fold change (antibiotic MIC, NB vs NB + AgSol1000): dash = MIC unchanged; for fold increase in effect with AgSol vs antibiotic alone: Table 6, E. coli
Description: (§1) The MIC (Minimal Inhibitory Concentration) of a bacterium to a certain antimicrobial agent gives a quantitative estimate of the susceptibility. MIC is defined as the lowest concentration of antimicrobial agent required to inhibit growth of the organism. The principle is simple: Agar plates, tubes or microtitre trays with two-fold dilutions of antibiotics are inoculated with a standardized inoculum of the bacteria and incubated under standardized conditions following NCCLS guidelines. The next day, the MIC is recorded as the lowest concentration of antimicrobial agent with no visible growth. The MIC informs you about the degree of resistance and might give you important information about the resistance mechanism and the resistance genes involved. MIC-determination performed as agar dilution is regarded as the gold standard for susceptibility testing (Source: Global Salm-Surv—A global Salmonella surveillance and laboratory support project of the World Health Organization (4th Ed. April 2002, modified November 2010))
(§2) The Minimum Inhibitory Concentration (MIC) of nanosilver (silver) was determined by two-fold dilution series in NaCl free Nutrient Broth (Sigma-Aldrich) in 15 ml screw cap tubes. The tubes were incubated in the dark over night at 37° C. without shaking. The MIC was determined as the lowest concentration of nanosilver (silver) at which no visible growth was observed.
(§3) Antibiotic stock solutions were serially diluted in 2-fold steps in pre-warmed (37° C.) nutrient broth (NB) to prepare an antibiotic concentration gradient above and below the minimal inhibitory concentration (MIC) of antibiotic (Table 4). 50 μl of prepared dilutions were aliquoted into a 96-well round bottom plate (Nunc, Thermo Fisher) for the screening assay.
(§4) Silver formulation (AgSol1000 (particles with 19 Ag per silica particle), AgSol300 (particles with 6 Ag per silica particle, AgNO3), aluminum coated silica beads (159/500 (silica particles with aluminium silicate coating)) and uncoated silica beads (15/500) were diluted in pre-warmed (37° C.) NB. Bindzil®15/500 is an unmodified silica sol, whereas Bindzil®159/500 is a aluminosilicate modified silica sol. Bindzil® is sold by Akzo Nobel AB.
(§5) 40 μl of the prepared dilutions were added to the 96-well plate containing antibiotic gradient to reach the final silver concentration of ¼×MICAgSol (silver) (specific for the microorganism used) (Table 5).
(§6) Overnight (16-20 h) cultures of 3 biological replicates of the following microorganisms E. coli K-12 MG1655 (DA4201), E. coli K-12 MG1655 rpsL K42N (DA49828), Pseudomonas aeruginosa PAO1 (DA6215) or Staphylococcus aureus USA300 JE2 (DA28823) were grown in NB till saturation (37° C. incubator with 190 rpm shaking). Cultures were diluted in NB to 10^7 CFU/ml and 10 μl of the dilution were added to the 96-well plate containing antibiotic gradient and silver formulations or the bead controls to reach the final concentration of 10^5 CFU/well in 100 μl total volume per well. 3 technical replicates (3 wells) of specific antibiotic concentration in combination with silver and microorganism were used. A control plate containing bacterial cells mixed with only antibiotic gradient was always included too.
(§7) The prepared plate was incubated in 37° C. incubator without shaking in the dark for 16-20 h and the optical density (OD620) of each well was measured in plate reader Multiscan FC (Thermo Fisher).

[2] = tested on: Pseudomonas aeruginosa PAO1 (DA6215); test: Time-kill assay; assay type: cell-based; conditions: for time-kill: effect of gentamicin in combination with AgSol: 0-48 h, FIGS. 8A, 8B
Description: (§8) Antibiotic stock solutions were diluted in pre-warmed (37° C.) nutrient broth (NB) to prepare 2×MIC concentration (Table 4) of antibiotic in the final volume of 2 ml in 15 ml tubes (Sarstedt).
(§9) Silver formulation (AgSol1000, AgNO3) was diluted in pre-warmed (37° C.) NB and added to the tube containing antibiotic to reach the final silver concentration of ¼×MICAgsol (silver) (Table 5) in the final volume of 2 ml.
(§10) Overnight (16-20 h) cultures of 2 biological replicates of the following microorganisms Pseudomonas aeruginosa PAO1 (DA6215) or Staphylococcus aureus USA300 JE2 (DA28823) were grown in NB till saturation (37° C. incubator with 190 rpm shaking). Cultures were diluted (1/100) in pre-warmed (37° C.) NB and incubated in 37° C. incubator with 190 rpm shaking until they reached exponential growth phase (OD600˜0.2). Final concentration of approximately 10^6 CFU/ml of exponentially dividing cells was used in the total volume of 2 ml mixture of antibiotic and silver formulation. Control tubes with only bacterial cells or bacterial cells mixed with only antibiotic or only silver formulation were also used.
(§11) All tubes were incubated in 37° C. water bath with 150 rpm shaking and 100 μl samples were taken out at pre-determined time points for viable counts (2 technical replicates). CFU counts were normalized to the 0 h sample and were plotted as a function of time (h).
(§12) A “Time Kill” test was performed with S. aureus USA3000 JE2 and Fusidic acid (FUS) and Mupirocin (MUP) and with P. aeruginosa (PAO1) with gentamicin (GEN). From a stock solution with bacteria with controlled growth at 37° C. during 16 h, […] were prepared: • Bacterial cells • Bacterial cells+AgSol • Bacterial cells+AgNO3; • Bacterial cells+AgSol+antibiotic • Bacterial cells+AgNO3+antibiotic
(§13) Samples were taken after 0, 4, 8, 24 and 48 hours at 37° C. (incubation with shaking). The samples were plated for viable counts, CFU counts normalized to 0 h and plotted as a function of time.

[3] = tested on: Pseudomonas aeruginosa PAO1 (DA6215); test: AgSol-antibiotic synergy screening assay / MIC; assay type: cell-based
Description: as §1, §2, §3, §4, §5, §6, §7

[4] = tested on: gentamicin-resistant P. aeruginosa (DA60255); test: AgSol-antibiotic synergy screening assay / MIC, gentamicin-resistant strain; assay type: cell-based, Pseudomonas aeruginosa; conditions: AgSol1000 at 0.25×MIC; FIG. 9
[5] = tested on: S. enterica Typhimurium LT2; test: AgSol-antibiotic synergy screening assay; assay type: cell-based, Salmonella enterica; conditions: Streptomycin or Rifampicin; FIGS. 2A-2F
Description: as §3, §4, §5, §7

[6] = tested on: Salmonella enterica Typhimurium LT2; test: Highly sensitive competition experiments (resistant vs wild type); assay type: cell-based; conditions: 50% sensitive / 50% Streptomycin-resistant bacteria; silver at 0.25×MIC; FIG. 1
Description: as §2

[7] = tested on: Staphylococcus aureus USA300 JE2 (DA28823); test: Time-kill assay; assay type: cell-based; conditions: antibiotic 2×MIC, silver ¼×MIC; FIG. 7A-B
Description: as §8, §9, §10, §11, §12, §13

[8] = tested on: Staphylococcus aureus USA300 JE2 (DA28823); test: AgSol-antibiotic synergy screening assay / MIC; assay type: cell-based; conditions: for effect of antibiotic when adding AgSol: S. aureus (USA300 JE2), FIGS. 4 and 5; for MIC: Staphylococcus aureus, USA300, antibiotic alone, S. aureus (DA28823), values used for antibiotic gradient
Description: as §1, §2, §3, §4, §5, §6, §7

[9] = Escherichia coli, MG1655, antibiotic alone, E. coli (DA4201), values used for antibiotic gradient, read-out: MIC
[10] = Escherichia coli, MG1655, antibiotic alone, nutrient broth, read-out: Antibiotic MIC, NB

Row | Compound | MIC [1, 9] [µg/mL] | MIC [1, 10] [µg/mL] | Antibiotic MIC, NB + AgSol1000 ([1]; nutrient broth) [µg/mL] | Fold change (antibiotic MIC, NB vs NB + AgSol1000) [1] [x] | also measured
1 | CC1(C)S[C@@H]2[C@H](NC(=O)[C@H](N)c3ccccc3)C(=O)N2[C@H]1C(=O)O [Ampicillin] | 4 | 4 | 2 | 2 | 
2 | Gentamicin |  |  | 0.03 | 17 | fold increase in effect with AgSol vs antibiotic alone ([1]; listed as Gentamycin): 17 fold; MIC ([1]; antibiotic alone, E. coli (DA4201), values used for antibiotic gradient): 0.5 µg/mL; Antibiotic MIC, NB ([1]; antibiotic alone, nutrient broth): 0.5 µg/mL; time to almost complete killing (bactericidal effect), gentamicin in combination with AgSol [2]: ≤ 24 h; time-kill: effect of gentamicin in combination with AgSol [2]: no bacterial growth is visible within 48 hours; time-kill: effect of gentamicin in combination with AgSol ([2]; listed as GEN): even stronger bactericidal effect; synergistic effect of gentamicin in combination with AgSol ([3]; P. aeruginosa (PAO1), FIG. 3): −50%; synergistic anti-bacterial effect of antibiotic in combination with colloidal dispersion ([3]; P. aeruginosa, FIGS. 3, 8, 9): synergistic anti-bacterial effect; MIC ([3]; antibiotic alone, P. aeruginosa (DA6215), values used for antibiotic gradient): 0.375 µg/mL; effect on bacteria (OD620) of combination silver/gentamicin ([3]; gentamicin 0.19 ug/ml with silver): complete killing of bacteria; effect on OD620 of gentamicin alone ([3]; gentamicin 0.19 ug/ml without silver): almost no reduction in OD620; anti-bacterial effect of AgSol and gentamycin on resistant strain [4]: confirmed the anti-bacterial effect
3 | CC[C@H]1OC(=O)[C@H](C)[C@@H](O[C@H]2C[C@@](C)(OC)[C@@H](O)[C@H](C)O2)[C@H](C)[C@@H](O[C@@H]2O[C@H](C)C[C@H](N(C)C)[C@H]2O)[C@](C)(O)C[C@@H](C)C(=O)[C@H](C)[C@@H](O)[C@]1(C)O [Erythromycin] | 48 | 48 | 48 |  | 
4 | O=C(O)c1cn(C2CC2)c2cc(N3CCNCC3)c(F)cc2c1=O [Ciprofloxacin] | 0.012 | 0.012 | 0.012 |  | 
5 | CO[C@H]1/C=C/O[C@@]2(C)Oc3c(C)c(O)c4c(O)c(c(/C=N/N5CCN(C)CC5)c(O)c4c3C2=O)NC(=O)/C(C)=C\C=C\[C@H](C)[C@H](O)[C@@H](C)[C@@H](O)[C@@H](C)[C@H](OC(C)=O)[C@@H]1C [Rifampicin] | 3 | 3 | 3 |  | 
6 | CN[C@@H]1[C@H](O)[C@H](NC)[C@H]2O[C@@]3(O)C(=O)C[C@@H](C)O[C@H]3O[C@@H]2[C@H]1O [Spectinomycin] | 12 | 12 | 6 | 2 | 
7 | O=C(N[C@H](CO)[C@H](O)c1ccc([N+](=O)[O-])cc1)C(Cl)Cl [Chloramphenicol] | 3 | 3 | 1.5 | 2 | 
8 | CO/N=C(\C(=O)N[C@@H]1C(=O)N2C(C(=O)O)=C(COC(C)=O)CS[C@H]12)c1csc(N)n1 [Cefotaxime] | 0.094 | 0.094 | 0.047 | 2 | 
9 | NC[C@H]1O[C@H](O[C@H]2[C@H](O)[C@@H](O[C@H]3O[C@H](CO)[C@@H](O)[C@H](N)[C@H]3O)[C@H](N)C[C@@H]2N)[C@H](O)[C@@H](O)[C@@H]1O [Kanamycin] | 0.5 | 0.5 | 0.12 | 4 | 
10 | CN(C)[C@@H]1C(O)=C(C(N)=O)C(=O)[C@@]2(O)C(O)=C3C(=O)c4c(O)cccc4[C@@](C)(O)[C@H]3C[C@@H]12 [Tetracycline] | 1 | 0.5 | 0.5 |  | 
11 | NC[C@H]1O[C@H](O[C@H]2[C@H](O)[C@@H](O[C@H]3O[C@H](CO)[C@@H](O)[C@H](N)[C@H]3O)[C@H](N)C[C@@H]2N)[C@H](N)C[C@@H]1O [Tobramycin] | 0.75 | 0.75 | 0.047 | 16 | fold increase in effect with AgSol vs antibiotic alone [1]: 16 fold
12 | O=[N+]([O-])[O-].[Ag+] [AgNO3, silver nitrate] |  |  |  |  | effect of silver formulation in combination with antibiotics vs silica particles 159/500 and 15/500 [5]: improved effect; effect of silver source in combination with Streptomycin [6]: synergistic effect
13 | C/C(=C\C(=O)OCCCCCCCCC(=O)O)C[C@@H]1OC[C@H](C[C@@H]2O[C@H]2[C@@H](C)[C@H](C)O)[C@@H](O)[C@H]1O [Mupirocin] |  |  |  |  | time-kill: action of antibiotic in combination with AgSol [7]: bacteriostatic; effect of antibiotic when adding AgSol [8]: synergistic anti-bacterial effect; also recorded: there was an effect; MIC [8]: 0.12 µg/mL
14 | CC(=O)O[C@H]1C[C@@]2(C)[C@@H](C[C@@H](O)[C@H]3[C@@]4(C)CC[C@@H](O)[C@@H](C)[C@@H]4CC[C@@]32C)/C1=C(\CCC=C(C)C)C(=O)O [Fusidic acid] |  |  |  |  | time-kill: action of antibiotic in combination with AgSol [7]: bacteriostatic; effect of antibiotic when adding AgSol [8]: synergistic anti-bacterial effect; also recorded: there was an effect; MIC [8]: 0.12 µg/mL
